Data on one compound can be found in patent publication US6054437A, “Method for inducing death of neoplastic cells using piperazine derivatives” (Hitachi Chemical Research Center, Inc., priority 1997, dated 2000).

Where a name gives a salt, the structure may show the parent alone.

Experiment [1] deals with ovarian cancer cell lines SW-626 and AN-3-CA. As to the kind of experiment: Cancer cell death assay (LDH release), ovarian lines. The format is cell-based, human. To be noted: compound alone, 24 hours. As for the experimental part: FIG. 1 is a graph showing the relationship between LDH released and the concentration of NCO-700 in cancer cell death assays of human ovarian cancer cell lines SW-626 and AN-3-CA.
(§1) 1. Cancer Cell Death Assay
(§2) Cell death was measured quantitatively by the release of a marker intracellular enzyme, lactate dehydrogenase (LDH), from damaged or killed cells. LDH released into the extracellular fluid, was measured 24 hours after drug exposure to cancer cells and the enzyme activity was determined by the method of Decker et al. (J. Immunolog Methods 15:61-99, 1988).
(§3) All cell lines used in the present study were obtained from the American Type Tissue Culture Laboratory and cultured according to their specifications. All were human cancer lines unless otherwise noted. The following cell lines and their tissue of origin used in our studies were:
(§4) The first assays performed measured the anti-neoplastic activity of NCO-700, alone, in cell death assays of a wide variety of human cancer cells. The results of these experiments are shown in FIGS. 1-6, where a dose-response curve of NCO-700 versus % LDH release is plotted, with higher values of LDH released indicating greater anti-neoplastic activity (apoptosis).
A general note: LDH in the medium is a marker of cell lysis.

In another experiment the test system is T-47D (breast). As to the kind of experiment: Cancer cell survival assay, T-47D. The class given is cell-based, human. To be noted: seven days, alone. As for the experimental part:
(§5) Cell survival was assayed in cultured tumor cells. From 500-1000 cells per well were plated in 24-welled culture dishes and exposed to drug for seven days. After drug exposure, a computerized cell imaging technique was utilized to ascertain the number of viable cells remaining in each culture. From the data, survival curves were plotted and a ED50 (drug concentration that permits 50% cell survival) were calculated.
(§6) The cancer cell survival assay is an important additional in vitro assay to assess the anti-neoplastic activity of compounds as the cells are given a prolonged exposure (seven days) to the drug. FIGS. 9-16 show the effect of increasing the dose of NCO-700 on the survival of a number of cancer cell lines. […] In the figures, the vertical axis is the object area, which is the number of surviving cancer cells calculated by a computer.

Experiment [2] concerns melanoma cell lines B16F10 and SK-Mel-2. Nature of the experiment: Cancer cell death assay (LDH release), melanoma lines. The class given is cell-based, mouse (B16F10); human (SK-Mel-2). The settings on record: compound alone, 24 hours. As for the experimental part: FIG. 2 is a graph showing the relationship between LDH released and the concentration of NCO-700 in cancer cell death assays of melanoma cell lines B16F10 (mouse line) and SK-Mel-2 (human line).
as §1, §2, §3, §4

In a further experiment the test system is HEP-129 (liver). As to the kind of experiment: Cancer cell death assay (LDH release), liver line. The class given is cell-based, human. The settings on record: compound alone, 24 hours. As for the experimental part:
FIG. 4 is a graph showing the relationship between LDH released and the concentration of NCO-700 in cancer cell death assays of human cancer cell lines MCF-7 (breast), HL-60 (leukemia), and HEP-129 (liver).
as §1, §2, §3, §4

For another experiment, the system named is WIDR (colon). As to the kind of experiment: Cancer cell survival assay, WIDR. The class given is cell-based, human. To be noted: seven days, alone. As for the experimental part: as §5, §6
FIGS. 26-31 show the effect of increasing the dose of TOP-008 against a number of cancer cell lines. […] For example, if the activity of NCO-700 and TOP-008 are compared against the human colon cancer cell line WIDR (FIG. 16 in Experiment 1 versus FIG. 31) it is seen that the effective dose of TOP-008 is much lower in this particular assay.

A further experiment concerns LS-174T (colon). Nature of the experiment: Cancer cell survival assay, LS-174T. The format is cell-based, human. To be noted: seven days, alone. As for the experimental part:
as §5, §6

Another experiment concerns KB-V-1 (resistant cells). As to the kind of experiment: Drug accumulation assay ([3H]-vinblastine), resistant cells. The class given is cell-based, human. The settings on record: KB-V-1, 20 μM NCO-700 + vinblastine. As for the experimental part:
1. Drug Accumulation Assays
where the effect of NCO-700 on the uptake of radioactive (^3 H)-vinblastine, an anticancer drug, is measured in cultured cancer cells, that are both drug-resistant and drug-sensitive (Reference 3).
In the first two in vitro assays, the drug accumulation assay and the cell survival assay, a human pharyngeal carcinoma cell line (KB-V-1) which is highly resistant to anticancer drugs was used. This cell line was developed by Drs. Ira Pastan and Michael Gottesman of the National Cancer Institute, by step-wise selection in colchicine of drug-resistant cells. The control cancer cell line (KB-3), from which the resistant cell lines were derived, is sensitive to anticancer drugs.
Measurement of [^3 H]-vinblastine accumulation was performed by the methods developed in the laboratory of Drs. […] In this method, KB-V-1 and KB-3 cells were plated in 10% fetal bovine serum at a density of 3×10^5 cells per well in 24-well Costar plates. The next day, the growth medium was replaced with Dulbecco's modified Eagle's medium with or without (control cells) 20 μM NCO-700. After ten minutes, the medium was removed and replaced with assay medium (0.5 ml) containing 0.1 μCi, (13 pmol) [^3 H]-vinblastine in the presence or absence of 20 μM NCO-700. After an additional 30 min, the medium was removed, the plates were washed three times in ice-cold phosphate-buffered saline, the cells were detached with trypsin, and radioactivity determined by scintillation counting.

A further experiment has as its system HS-578T (breast). As to the kind of experiment: Cancer cell survival assay, HS-578T. The class given is cell-based, human. The settings on record: seven days, alone. As for the experimental part: as §5, §6

With `CCOC(=O)[C@@H]1O[C@H]1C(=O)N[C@@H](CC(C)C)C(=O)N1CCN(Cc2ccc(OC)c(OC)c2OC)CC1` [NCO-700, Bis[ethyl (2R,3R)-3-[(S)-3-methyl-1-[4-(2,3,4-trimethoxyphenylmethyl)piperazin-1-ylcarbonyl]butylcarbamoyl]oxirane-2-carboxylate] Sulfate], the “anti-neoplastic activity (LDH release)” value is on record as “partly responsive” in experiment [1], “all cells lines showed sensitivity to NCO-700” in experiment [2] and “did not respond” in the experiment with HEP-129 (liver). Moreover, the “anti-neoplastic activity (cell survival)” value with T-47D (breast), in the experiment with WIDR (colon), in the experiment on LS-174T (colon) and with HS-578T (breast) was “significant anti-neoplastic activity” in each case. Also, in the experiment on KB-V-1 (resistant cells), the vinblastine accumulation is recorded as 1.56 ± 0.03 pmole vinblastine/mg protein.
